# pIC50, pKi: −log10 of the molar value.
# Assays:
# [1] = molecular target: T1, Human adrenergic α2B receptor (Homo sapiens, UniProt P18089); assay: Radioligand binding, adrenergic α2B (Protocol Group B); parameters: purchased Milipore (Millipore); conditions: for pKi / Percentage inhibition of ligand binding, Adrenergic α2B (10 nM) / inhibition at 0.03 µM / inhibition at 0.1 µM / Percentage inhibition of ligand binding, Adrenergic α2B (30 nM) / Percentage inhibition of ligand binding, Adrenergic α2B (0.1 μM) / inhibition at 0.01 µM: Protocol Group B; for pKi: estimated Ki, read-out: Ki α2B; for Percentage inhibition of ligand binding, Adrenergic α2B, 0.1 nM: 0.0001 µM; for Percentage inhibition of ligand binding, Adrenergic α2B (10 nM) / inhibition at 0.01 µM: 10 nM compound; for Percentage inhibition of ligand binding, Adrenergic α2B (10 nM): 0.01 µM; for inhibition at 0.03 µM / Percentage inhibition of ligand binding, Adrenergic α2B (30 nM): 30 nM compound; for inhibition at 0.03 µM: read-out: Percentage inhibition of ligand binding, Adrenergic α2B (30 nM); for inhibition at 0.1 µM / Percentage inhibition of ligand binding, Adrenergic α2B (0.1 μM): 0.1 μM compound; for inhibition at 0.1 µM: read-out: Percentage inhibition of ligand binding, Adrenergic α2B (0.1 μM); for inhibition at 0.01 µM: read-out: Percentage inhibition of ligand binding, Adrenergic α2B (10 nM); for Percentage inhibition of ligand binding, Adrenergic α2B, 0.32 nM: 0.00032 µM; for Percentage inhibition of ligand binding, Adrenergic α2B, 1 nM: 0.001 µM; for Percentage inhibition of ligand binding, Adrenergic α2B, 3.2 nM: 0.0032 µM
# T1 sequence (P18089 1-450): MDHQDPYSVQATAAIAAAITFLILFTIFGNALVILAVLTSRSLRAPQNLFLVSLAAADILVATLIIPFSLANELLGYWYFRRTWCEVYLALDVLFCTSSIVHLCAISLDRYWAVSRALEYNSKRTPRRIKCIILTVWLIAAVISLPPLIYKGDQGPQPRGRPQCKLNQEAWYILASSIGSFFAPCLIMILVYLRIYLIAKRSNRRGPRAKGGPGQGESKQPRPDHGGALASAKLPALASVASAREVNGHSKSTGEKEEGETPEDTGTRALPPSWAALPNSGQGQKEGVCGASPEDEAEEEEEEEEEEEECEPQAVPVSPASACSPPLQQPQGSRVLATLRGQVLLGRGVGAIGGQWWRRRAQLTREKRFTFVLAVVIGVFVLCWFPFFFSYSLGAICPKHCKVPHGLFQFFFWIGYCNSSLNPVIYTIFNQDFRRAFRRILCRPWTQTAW
# Method in brief: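 Recombinant human α2B receptor membranes incubated with compounds in 50 mM Tris-HCl pH 7.4, 5 mM MgCl2, 1 mM CaCl2, 0.2% BSA, 1% DMSO vehicle. Non-specific binding defined with 10 μM rauwolscine. Values are percent inhibition of specific binding or estimated Ki.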
# [2] = molecular target: T1, Human adrenergic α2B receptor; assay: β-Arrestin GPCR functional assay, adrenergic α2B (Protocol B); format: cell-based; conditions: for pIC50: β-arrestin, antagonist vs nor-epinephrine EC80, read-out: IC50 Adrenergic α2B; for Percentage inhibition, Adrenergic α2B / inhibition at 0.03 µM / inhibition at 0.1 µM / inhibition at 0.01 µM: nor-epinephrine at EC80 (50 nM); for inhibition at 0.03 µM / inhibition at 0.1 µM / inhibition at 0.01 µM: read-out: Percentage inhibition, Adrenergic α2B
# Method in brief: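 CHO cells overexpressing human α2B (PathHunter β-arrestin), 12,000 per well, 24 h at 37° C; compounds in 1% DMSO 30 min, then 50 nM norepinephrine (EC80) 90 min at 37° C.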
# [3] = 0.1 nM compound, concentration series
# [4] = 0.32 nM compound, concentration series
# [5] = 1 nM compound, concentration series
# [6] = 3.2 nM compound, concentration series
smiles,measurement,setting,value
"Cc1ccc2c(c1)c1c(n2CC(OC(=O)N2CCCC2)c2ccncc2)CCN(C)C1 (single isomer, unassigned) [4b]",pKi,[1],8.44
same,pIC50,[2],6.79
"Cc1ccc2c(c1)c1c(n2CC(C)(O)c2ccc(F)nc2)CCN2CCCC12 (single isomer, unassigned) [6a]",pKi,[1],8.85
same,pIC50,[2],7.62
"Cc1ccc2c(c1)c1c(n2CC(C)(O)c2ccncc2)CCN2CCCC12 (single isomer, unassigned) [13a]",pKi,[1],8.73
same,"Percentage inhibition, Adrenergic α2B",[2]; 10 nM compound,9%
same,inhibition at 0.03 µM,[2]; 30 nM compound,29%
same,inhibition at 0.1 µM,[2]; 0.1 μM compound,88%
same,pIC50,[2],7.52
"Cc1ccc2c(c1)c1c(n2CC(C)(O)c2ccncc2)CCN2CCCC12 (single isomer, unassigned) [13b]",pKi,[1],8.91
same,"Percentage inhibition, Adrenergic α2B",[2]; 10 nM compound,4%
same,"Percentage inhibition, Adrenergic α2B",[2]; 30 nM compound,30%
same,"Percentage inhibition, Adrenergic α2B",[2]; 0.1 μM compound,102%
same,pIC50,[2],7.92
"Cc1ccc2c(c1)c1c(n2CC(O)c2ccncc2F)CCN2CCCC12 (single isomer, unassigned) [14a]","Percentage inhibition of ligand binding, Adrenergic α2B, 0.1 nM",[1]; [3],−28%
same,"Percentage inhibition of ligand binding, Adrenergic α2B (10 nM)",[1],60%
same,inhibition at 0.03 µM,[1],81%
same,inhibition at 0.1 µM,[1],89%
same,pKi,[1],8.19
same,inhibition at 0.01 µM,[2]; 10 nM compound,13%
same,"Percentage inhibition, Adrenergic α2B",[2]; 30 nM compound,9%
same,"Percentage inhibition, Adrenergic α2B",[2]; 0.1 μM compound,41%
same,pIC50,[2],6.91
"Cc1ccc2c(c1)c1c(n2CC(O)c2ccncc2F)CCN2CCCC12 (single isomer, unassigned) [14b]","Percentage inhibition of ligand binding, Adrenergic α2B, 0.1 nM",[1]; [3],18%
same,"Percentage inhibition of ligand binding, Adrenergic α2B (10 nM)",[1],98%
same,"Percentage inhibition of ligand binding, Adrenergic α2B (30 nM)",[1]; 0.03 µM,100%
same,"Percentage inhibition of ligand binding, Adrenergic α2B (0.1 μM)",[1],96%
same,pKi,[1],8.96
same,"Percentage inhibition, Adrenergic α2B",[2]; 10 nM compound,11%
same,"Percentage inhibition, Adrenergic α2B",[2]; 30 nM compound,93%
same,"Percentage inhibition, Adrenergic α2B",[2]; 0.1 μM compound,97%
same,pIC50,[2],7.85
"OC(Cn1c2c(c3cc(F)ccc31)C1CCCN1CC2)c1ccncc1 (single isomer, unassigned) [18b]",inhibition at 30 pM,"[1]; 0.03 nM compound, concentration series, read-out: Percentage inhibition of ligand binding, Adrenergic α2B, 0.03 nM",19%
same,inhibition at 0.0001 µM,"[1]; 0.1 nM compound, concentration series, read-out: Percentage inhibition of ligand binding, Adrenergic α2B, 0.1 nM",6%
same,inhibition at 0.00032 µM,"[1]; 0.32 nM compound, concentration series, read-out: Percentage inhibition of ligand binding, Adrenergic α2B, 0.32 nM",14%
same,inhibition at 0.001 µM,"[1]; 1 nM compound, concentration series, read-out: Percentage inhibition of ligand binding, Adrenergic α2B, 1 nM",29%
same,inhibition at 0.0032 µM,"[1]; 3.2 nM compound, concentration series, read-out: Percentage inhibition of ligand binding, Adrenergic α2B, 3.2 nM",78%
same,inhibition at 0.01 µM,[1],94%
same,inhibition at 0.03 µM,[1],97%
same,inhibition at 0.1 µM,[1],100%
same,pKi,[1],8.99
same,inhibition at 0.01 µM,[2]; 10 nM compound,37%
same,inhibition at 0.03 µM,[2]; 30 nM compound,94%
same,inhibition at 0.1 µM,[2]; 0.1 μM compound,103%
same,pIC50,[2],7.89
"Cc1cc(C)c2c(c1)c1c(n2CC(C)(O)c2ccncc2)CCN2CCCC12 (single isomer, unassigned) [19a]",inhibition at 32 pM,"[1]; 0.032 nM compound, concentration series, read-out: Percentage inhibition of ligand binding, Adrenergic α2B, 0.032 nM",3%
same,"Percentage inhibition of ligand binding, Adrenergic α2B, 0.1 nM",[1]; [3],8%
same,"Percentage inhibition of ligand binding, Adrenergic α2B, 0.32 nM",[1]; [4],9%
same,"Percentage inhibition of ligand binding, Adrenergic α2B, 1 nM",[1]; [5],18%
same,"Percentage inhibition of ligand binding, Adrenergic α2B, 3.2 nM",[1]; [6],64%
same,inhibition at 0.01 µM,[1],94%
same,inhibition at 0.03 µM,[1],99%
same,inhibition at 0.032 µM,"[1]; 0.032 μM compound, concentration series, read-out: Percentage inhibition of ligand binding, Adrenergic α2B, 0.032 μM",99%
same,inhibition at 0.1 µM,[1],100%
same,pKi,[1],9.00
same,"Percentage inhibition, Adrenergic α2B",[2]; 10 nM compound,33%
same,"Percentage inhibition, Adrenergic α2B",[2]; 30 nM compound,71%
same,inhibition at 0.1 µM,[2]; 0.1 μM compound,101%
same,pIC50,[2],7.74
"Cc1cc(C)c2c(c1)c1c(n2CC(C)(O)c2ccncc2)CCN2CCCC12 (single isomer, unassigned) [19b]","Percentage inhibition of ligand binding, Adrenergic α2B, 0.032 nM","[1]; 0.032 nM compound, concentration series, 32 pM",6%
same,"Percentage inhibition of ligand binding, Adrenergic α2B, 0.1 nM",[1]; [3],0%
same,"Percentage inhibition of ligand binding, Adrenergic α2B, 0.32 nM",[1]; [4],2%
same,"Percentage inhibition of ligand binding, Adrenergic α2B, 1 nM",[1]; [5],4%
same,"Percentage inhibition of ligand binding, Adrenergic α2B, 3.2 nM",[1]; [6],31%
same,"Percentage inhibition of ligand binding, Adrenergic α2B (10 nM)",[1],91%
same,"Percentage inhibition of ligand binding, Adrenergic α2B (30 nM)",[1]; 0.03 µM,97%
same,"Percentage inhibition of ligand binding, Adrenergic α2B, 0.032 μM","[1]; 0.032 μM compound, concentration series, 0.032 µM",95%
same,"Percentage inhibition of ligand binding, Adrenergic α2B (0.1 μM)",[1],99%
same,pKi,[1],8.62
same,"Percentage inhibition, Adrenergic α2B",[2]; 10 nM compound,15%
same,"Percentage inhibition, Adrenergic α2B",[2]; 30 nM compound,34%
same,"Percentage inhibition, Adrenergic α2B",[2]; 0.1 μM compound,86%
same,pIC50,[2],7.28
"CC(O)(Cn1c2c(c3cc(F)ccc31)C1CCCN1CC2)c1ccncc1 (single isomer, unassigned) [31a]",inhibition at 0.01 µM,[1],72%
same,inhibition at 0.03 µM,[1],90%
same,inhibition at 0.1 µM,[1],96%
same,pKi,[1],8.66
same,pIC50,[2],7.06
"CC(O)(Cn1c2c(c3cc(F)ccc31)C1CCCN1CC2)c1ccncc1 (single isomer, unassigned) [31b]","Percentage inhibition of ligand binding, Adrenergic α2B (10 nM)",[1],68%
same,"Percentage inhibition of ligand binding, Adrenergic α2B (30 nM)",[1],90%
same,"Percentage inhibition of ligand binding, Adrenergic α2B (0.1 μM)",[1],97%
same,pKi,[1],8.59
same,pIC50,[2],7.18
"Cc1ccc2c(c1)c1c(n2CC(OC2CCCC2)c2ccncc2)CCN(C)C1 (single isomer, unassigned) [35a]",inhibition at 0.01 µM,[1],63%
same,inhibition at 0.03 µM,[1],86%
same,inhibition at 0.1 µM,[1],96%
same,pKi,[1],8.54
same,pIC50,[2],6.59
"CCCOC(Cn1c2c(c3cc(C)ccc31)CN(C)CC2)c1ccncc1 (single isomer, unassigned) [42a]",inhibition at 0.01 µM,[1],74%
same,inhibition at 0.03 µM,[1],89%
same,inhibition at 0.1 µM,[1],97%
same,pKi,[1],8.64
same,pIC50,[2],6.74
"CCCOC(Cn1c2c(c3cc(C)ccc31)CN(C)CC2)c1ccncc1 (single isomer, unassigned) [42b]","Percentage inhibition of ligand binding, Adrenergic α2B (10 nM)",[1],86%
same,"Percentage inhibition of ligand binding, Adrenergic α2B (30 nM)",[1]; 0.03 µM,97%
same,"Percentage inhibition of ligand binding, Adrenergic α2B (0.1 μM)",[1],100%
same,pKi,[1],8.89
same,pIC50,[2],7.39
"CCOC(Cn1c2c(c3cc(C)ccc31)CN(C)CC2)c1ccncc1 (single isomer, unassigned) [43a]",inhibition at 0.01 µM,[1],64%
same,inhibition at 0.03 µM,[1],85%
same,inhibition at 0.1 µM,[1],96%
same,pKi,[1],8.55
same,pIC50,[2],6.92
"CCOC(Cn1c2c(c3cc(C)ccc31)CN(C)CC2)c1ccncc1 (single isomer, unassigned) [43b]","Percentage inhibition of ligand binding, Adrenergic α2B (10 nM)",[1],71%
same,"Percentage inhibition of ligand binding, Adrenergic α2B (30 nM)",[1]; 0.03 µM,89%
same,"Percentage inhibition of ligand binding, Adrenergic α2B (0.1 μM)",[1],98%
same,pKi,[1],8.68
same,pIC50,[2],7.04
